Data as given in patent publication US7148194B2, “Method to increase fibronectin” (Kimberly-Clark Worldwide, Inc., priority 2002, dated 2006).
“Also recorded” adds a separate entry of the source.

Key:
pro-MMP-9 = pro-MMP-9 (Homo sapiens, UniProt P14780); test: anti-activation (splicing) assay: conversion of pro-MMP-9 by stromilysin, HPLC; type: biochemical; settings: pro-MMP-9 with stromilysin, micromolar 19-mer
Description: The assay measured how much proenzyme was converted into mature matrix metalloproteinase. Proenzyme pro-MMP-9 (100 μg) was mixed with 0.5 μg of stromilysin in PBS. The reaction was incubated at 35° C. Aliquots were removed from the reaction over an 80-minute time course. […] The zero (injection) time point was a single peak that eluted from the column in approximately 750 seconds. This peak reduced in size as a function of time, and two new peaks appeared. The first peak eluted at approximately 800 seconds, and represents the mature form of MMP-9. The second peak eluted at approximately 1100 seconds, and corresponds to the N-terminal pro-domain fragment. Peak areas were determined by integrating over the elution profile, and the percent area changes were plotted.
The first peak, eluting at approximately 700 seconds, is pro-MMP-9. As the splicing reaction proceeds, this peak decreases in intensity (as marked with the downwards arrow), and two new peaks appear. The first new peak, eluting at approximately 800 seconds, is mature and active MMP-9. The second new peak, eluting at approximately 1050 seconds, is the prodomain. As the splicing reaction proceeds, the intensity of these two peaks increases (as marked with the upwards arrows). When the reaction is complete, there is no detectable pro-MMP-9 remaining.

EpiDerm skin model = test: viability assay (MTT) in EpiDerm skin model; type: cell-based; settings: peptide at 500 μM and 2 mM, relative to PBS control
Description: The sample containers were transferred to 6 well plates that contained fresh media. All peptides were dissolved in PBS at a final concentration of 10 mM, and 100 μL each peptide solution was pipetted onto the surface of the Epiderm sample container. Incubation was continued for 12 hours at 37° C., 5% CO2. After the incubation period, the sample containers were washed three times with PBS and the sample containers were transferred to a 24 well plate that contained 300 μL of MTT assay media per well (MTT concentration was 1 mg/mL). The colorimetric assay was allowed to develop for three hours (incubation at 37° C., 5% CO2). Sample containers were then transferred to a 24 well culture plate that contained 2 mL of isopropanol per well. Extraction of the colored precipitate occurred over a period of four hours at room temperature. Absorbance readings were taken at 570 nm and 650 nm for each sample. The percent viability of each sample relative to a PBS control was calculated as: 100×(OD570^sam−OD650^sam)/(OD570^con−OD650^con) (6) Routinely, the peptide sample was assayed in triplicate. Results

[1] = test system: collagen production in human skin fibroblast cell line; test: collagen production in human skin fibroblasts, EIA; type: cell-based; settings: for Mean (collagen EIA, absorbance at 450 nm) / Median (collagen EIA, absorbance at 450 nm): 48 hours, n=2; for collagen production versus control: 10^−5 and 10^−6 M, P<0.001
Description: The stimulation response of the 19mer peptide on collagen production in the human skin fibroblast cell line (Clonetics, Walkersville, Md., normal human dermal fibroblasts, neonatal, catalog number CC-2509) was measured using Takara Biomedicals EIA assay kit (TAK MKO101) sold by Panvera (Madison, Wis.). The cells were first grown in a 96-well assay system using DMEM with 10% fetal bovine serum (FBS) both purchased from Sigma Chemical Co, St. Louis, Mo. Serum-free DMEM was used as a control. […] Plates were incubated for 24 hours at 37° C. in a humidified 5% CO2 atmosphere. After incubation, the medium was aspirated and the wells were rinsed twice with 100 μl of serum-free DMEM. […] In addition, 100 μl of vehicle (serum-free DMEM) was added to 4 wells as control. All wells were incubated for 48 hours at 37° C. in a humidified, 5% CO2 atmosphere.
The assay was performed using the recommended 20ul of the supernatant from each well of the 96-well plate. Standard buffer and stop solutions were freshly prepared before running the assay. 100ul of antibody-POD conjugate solution (supplied with the kit) was added into the wells using pre antibody coated 96 well plate (supplied with the kit). 20ul of standard and test solutions (from the other 96-well plate containing fibroblasts) were added to appropriate wells. Plate was mixed gently, sealed and incubated for three hrs. at 37° C.
After incubation each well was washed carefully four times with PBS buffer (400ul). All the wells were completely emptied at the end of washing from any liquid. 100ul of substrate solution (hydrogen peroxide and tetramethylbenzidine in a buffer solution, supplied with the kit) was added to each well and the plate was incubated for 15 minutes. At this point 100ul of stop solution (freshly prepared 1N H2SO4) was added to each well in the same order as substrate. The plate was gently mixed and absorbance was read at 450 nm. Results were analyzed statistically using one-way ANOVA.

[2] = test system: fibronectin in human skin fibroblast cell line; test: fibronectin in human skin fibroblasts, EIA; type: cell-based; settings: for Mean (fibronectin EIA, absorbance at 450 nm) / Median (fibronectin EIA, absorbance at 450 nm): 48 hours, n=2
Description: The fibroblast cells were first grown in a 96-well assay system using DMEM with 10% fetal bovine serum (FBS), both purchased from Sigma Chemical Co, St. Louis, Mo. […] Serum-free DMEM was used as a control. Cells were seeded into a 96 well plate at a concentration of 9×10^3 cells in 100 μl of DMEM containing 10% fetal bovine serum (FBS, Sigma Chemical Co., St. Louis, Mo.). The plate was incubated for 48 hours at 37° C. in a humidified 5% CO2 atmosphere. After incubation, the medium was aspirated and the wells were rinsed twice with 100 μl of serum-free DMEM. […] In addition, 100 μl of vehicle (serum-free DMEM) was added to 2 wells as a control. The plate was incubated for 48 hours at 37° C. in a humidified, 5% CO2 atmosphere.
The assay was performed using the recommended 100 μl of supernatant from each well of the 96-well plate. Standard buffer and stop solutions were freshly prepared before running the assay. A pre-antibody coated 96 well plate (provided with the kit) was used to transfer the test samples and the control. The plate was mixed, sealed, and incubated for 1 hour at 37° C. All the wells were washed three times (300ul) with washing buffer after removing sample solutions. 100ul of antibody-peroxidase conjugate solution was added into the wells. The plate was mixed, sealed, and incubated for one hour at 37° C. Solutions were removed and the wells were washed 3 times with washing buffer. All the wells were completely emptied at the end of washing from any liquid. 100 μl of substrate solution (hydrogen peroxide and tetramethylbenzidine in a buffered solution) was added to each well, and the plate was incubated at room temperature for 15 minutes. 100 μl of stop solution (freshly prepared 1N H2SO4) was added to each well in the same order as substrate. The plate was gently mixed and absorbance was read at 450 nm. Statistical analyses of data were performed using a one-way ANOVA.

Chain of pro-MMP-9 (P14780 20-707): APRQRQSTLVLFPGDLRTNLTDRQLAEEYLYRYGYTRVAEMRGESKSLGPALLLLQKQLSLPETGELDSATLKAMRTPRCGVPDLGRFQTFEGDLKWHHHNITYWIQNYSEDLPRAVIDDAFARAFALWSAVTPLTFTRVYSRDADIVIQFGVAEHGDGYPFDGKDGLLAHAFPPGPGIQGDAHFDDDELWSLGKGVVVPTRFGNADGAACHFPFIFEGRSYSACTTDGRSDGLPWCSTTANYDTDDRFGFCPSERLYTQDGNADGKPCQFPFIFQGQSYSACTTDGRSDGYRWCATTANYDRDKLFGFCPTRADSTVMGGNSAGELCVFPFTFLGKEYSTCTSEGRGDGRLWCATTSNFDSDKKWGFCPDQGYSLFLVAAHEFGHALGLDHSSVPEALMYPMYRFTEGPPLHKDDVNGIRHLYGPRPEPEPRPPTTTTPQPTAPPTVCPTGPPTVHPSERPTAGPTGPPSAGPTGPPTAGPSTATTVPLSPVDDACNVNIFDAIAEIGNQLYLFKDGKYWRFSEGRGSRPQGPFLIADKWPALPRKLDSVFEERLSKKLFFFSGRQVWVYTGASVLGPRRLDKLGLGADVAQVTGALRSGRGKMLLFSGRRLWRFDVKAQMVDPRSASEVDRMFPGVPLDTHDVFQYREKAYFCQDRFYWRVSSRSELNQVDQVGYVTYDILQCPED

## CC(C)[C@H](NC(=O)[C@H](CC(=O)O)NC(=O)[C@@H]1CCCN1C(=O)[C@H](CC(N)=O)NC(=O)CNC(=O)[C@H](CS)NC(=O)[C@H](CCCNC(=N)N)NC(=O)[C@@H]1CCCN1)C(=O)N[C@@H](C)C(=O)N[C@@H](CC(N)=O)C(=O)N[C@@H](Cc1ccc(O)cc1)C(=O)N[C@@H](CC(N)=O)C(=O)N[C@@H](Cc1ccccc1)C(=O)N[C@@H](Cc1ccccc1)C(=O)N1CCC[C@H]1C(=O)N[C@@H](CCCNC(=N)N)C(=O)N[C@@H](CCCCN)C(=O)N1CCC[C@H]1C(=O)N[C@@H](CCCCN)C(=O)O [Peptide 19-mer]
pro-MMP-9
  inhibition of conversion of pro-MMP-9 into prodomain and active enzyme (splicing): prevents the activation; also recorded: inhibited in a dose dependent manner
EpiDerm skin model
  total average viability: 97.6%
[1]; 1×10^−5 M
  Mean (collagen EIA, absorbance at 450 nm): 0.8365
  Median (collagen EIA, absorbance at 450 nm): 0.8365
[1]; 1×10^−6 M
  Mean (collagen EIA, absorbance at 450 nm): 0.8315
  Median (collagen EIA, absorbance at 450 nm): 0.8315
[1]
  collagen production versus control: increased collagen production
[1]; listed as 19mer peptide
  collagen production versus control: statistically significant amounts
[2]; 1×10^−4 M
  Mean (fibronectin EIA, absorbance at 450 nm): 0.4045
  Median (fibronectin EIA, absorbance at 450 nm): 0.4045
[2]; 1×10^−5 M
  Mean (fibronectin EIA, absorbance at 450 nm): 0.2400
  Median (fibronectin EIA, absorbance at 450 nm): 0.2400
[2]; 1×10^−6 M
  Mean (fibronectin EIA, absorbance at 450 nm): 0.1895
  Median (fibronectin EIA, absorbance at 450 nm): 0.1895
[2]; 10^−4 M
  effect on fibronectin stimulation compared with control and 10^−6 M: more than doubled
[2]; all concentrations tested (1×10^−4, 1×10^−5, 1×10^−6 M)
  amount of fibronectin versus control: increased the amount of fibronectin present
